Where two headings read alike, the source gives them in different places.
Tested on: aphids
Assay: Biological Test On Aphid (spray on cabbage leaf in Petri dish)
Format: in vivo
Settings: for Number of dead aphids 1st: 1st replicate; for Number of dead aphids 1st / Number of dead aphids 2nd / Number of dead aphids 3rd / Number of dead aphids 4th: 20 aphids on cabbage leaf, 9.6% w/w pesticide reagent diluted 1000 times with water, sprayed, examined 24 hours later; for Number of dead aphids 2nd: 2nd replicate; for Number of dead aphids 3rd: 3rd replicate; for Number of dead aphids 4th: 4th replicate; for Number of dead aphids Average: average of four replicates; for pest or weed control at 96 µg/mL: read-out: Kill ratio
Procedure: The compound obtained from Example 1 was mixed with a solvent to form a 9.6% w/w pesticide reagent. An 8 cm×8 cm piece of clean cabbage leaf was placed on a lump of wet cotton in a Petri dish, and then 20 aphids were put on the cabbage leaf in the Petri dish. The thus formed pesticide reagent was diluted 1000 times with water to form a dilution that was then sprayed onto the cabbage leaf in the Petri dish with a predetermined amount. The number of dead aphids was examined 24 hours later, and the kill ratio was calculated. The test was carried out through four replicates.
Example 9 was repeated, except that the compound employed in Example 9 was replaced by the compound obtained from a respective one of the Examples 2 to 8.
Example 9 was repeated, except that the compound employed in Example 9 was replaced by imidachloprid, a heterocyclic compound of the formula disclosed in U.S. Pat. No. 4,742,060 that can be useful as pesticides.

[1] = 20 aphids, 9.6% w/w reagent diluted 1000 times, 24 hours
[2] = calculated from number of dead aphids, 20 aphids, 9.6% w/w reagent diluted 1000 times, 24 hours, four replicates

SMILES: O=[N+]([O-])/N=C1\NCCN1Cc1ccc(Cl)nc1 [Comparative Example 1, imidachloprid, reference compound]
- Number of dead aphids 1st: 17
- Number of dead aphids 2nd: 17
- Number of dead aphids 3rd: 18
- Number of dead aphids 4th: 17
- Number of dead aphids Average [1]: 17.25
- Kill ratio [2]: 85.90

SMILES: N#CNCc1ccc(Cl)nc1 [Example 9, 6-chloro-pyridin-3-ylmethyl-cyanamide]
- Number of dead aphids 1st: 19
- Number of dead aphids 2nd: 19
- Number of dead aphids 3rd: 20
- Number of dead aphids 4th: 20
- pest or weed control at 96 µg/mL (24 h): 96.2%
- Number of dead aphids Average [1]: 19.25

SMILES: CS/C(C)=N/OCc1ccc(Cl)nc1 [Example 10, N-(6-chloro-pyridin-3-ylmethoxy)-thioacetimidic Acid Methyl Ester]
- Number of dead aphids 1st: 18
- Number of dead aphids 2nd: 17
- Number of dead aphids 3rd: 18
- Number of dead aphids 4th: 17
- Number of dead aphids Average [1]: 17.5
- pest or weed control at 96 µg/mL [2]: 87.2%

SMILES: CC(C)Oc1ccccc1OCc1ccc(Cl)nc1 [Example 11, 2-chloro-5-(2-isopropoxy-phenoxymethyl)-pyridine]
- Number of dead aphids 1st: 16
- Number of dead aphids 2nd: 19
- Number of dead aphids 3rd: 18
- Number of dead aphids 4th: 18
- Number of dead aphids Average [1]: 17.75
- pest or weed control at 96 µg/mL [2]: 88.5%

SMILES: CSc1c(C)cc(OCc2ccc(Cl)nc2)cc1C [Example 12, 2-chloro-5-(3,5-dimethyl-4-methylsulfanyl-phenoxymethyl)-pyridine]
- Number of dead aphids 1st: 20
- Number of dead aphids 2nd: 19
- Number of dead aphids 3rd: 19
- Number of dead aphids 4th: 19
- Number of dead aphids Average [1]: 19.25
- pest or weed control at 96 µg/mL [2]: 96.2%

SMILES: Clc1ccc(COc2cccc3ccccc23)cn1 [Example 13, 2-chloro-5-(naphthalen-1-yloxymethyl)-pyridine]
- Number of dead aphids 1st: 18
- Number of dead aphids 2nd: 17
- Number of dead aphids 3rd: 16
- Number of dead aphids 4th: 17
- Number of dead aphids Average [1]: 17
- pest or weed control at 96 µg/mL [2]: 84.6%

SMILES: CC1(C)Cc2cccc(OCc3ccc(Cl)nc3)c2O1 [Example 14, 2-chloro-5-(2,2-dimethyl-2,3-dihydro-benzofuran-7-yloxymethyl)-pyridine]
- Number of dead aphids 1st: 17
- Number of dead aphids 2nd: 16
- Number of dead aphids 3rd: 18
- Number of dead aphids 4th: 16
- Number of dead aphids Average [1]: 16.75
- pest or weed control at 96 µg/mL [2]: 83.3%

SMILES: CNC(=O)Nc1nc2ccccc2n1Cc1ccc(Cl)nc1 [Example 15, 1-[1-(6-chloro-pyridin-3-ylmethyl)-1H-benzoimidazol-2-yl]-3-mehtyl-urea]
- Number of dead aphids 1st: 17
- Number of dead aphids 2nd: 17
- Number of dead aphids 3rd: 16
- Number of dead aphids 4th: 16
- pest or weed control at 96 µg/mL (24 h): 82%
- Number of dead aphids Average [1]: 16.5

SMILES: CNC(=O)Nc1nc2ccccc2n1Cc1csc(Cl)n1 [Example 16, 1-[1-(2-chloro-thiazol-4-ylmethyl)-1H-benzoimidazol-2-yl]-3-methyl-urea]
- Number of dead aphids 1st: 19
- Number of dead aphids 2nd: 16
- Number of dead aphids 3rd: 16
- Number of dead aphids 4th: 16
- Number of dead aphids Average [1]: 16.75
- pest or weed control at 96 µg/mL [2]: 83.3%

From patent publication US20030092739A1, “Heterocyclic compounds” (priority 2001, published 2003)
